Results taken from patent publication US7759313B2, “Induction method for cell differentiation” (Obschetstvo S Ogranichennoi Otvetstvennostiyu …, priority 2002, dated 2010).
Read-outs that look alike come from different tables or passages of the source.

Key:
[1] = Total leukocyte number in peripheral blood under Cyclophosphamide
[2] = assay type: in vivo, mice
From the text: (§1) Two groups of mice are used.

[3] = Peripheral blood leukocytes formula under Cyclophosphamide; assay type: in vivo, mice; settings: day 3 post CPH
From the text: as §1

## O=P1(N(CCCl)CCCl)NCCCO1 (centres unmarked) [CPH, Cyclophosphamide]
[1]; CPH 200 mg/kg, day 5
  Total leukocyte number: 4.38 ± 0.77 thousand in mm^3
[1]; CPH 200 mg/kg, day 7
  Total leukocyte number: 10.50 ± 3.02 thousand in mm^3
[1]; CPH 200 mg/kg, day 10
  Total leukocyte number: 6.44 ± 0.60 thousand in mm^3
[1]; CPH 200 mg/kg, day 13
  Total leukocyte number: 12.20 ± 3.02 thousand in mm^3
[1]; CPH 200 mg/kg, day 17
  Total leukocyte number: 12.20 ± 1.80 thousand in mm^3
[1]; CPH 200 mg/kg, day 21
  Total leukocyte number: 11.86 ± 1.32 thousand in mm^3
[1]; single CPH 200 mg/kg (Dicarbamine group: 0.5 mg/kg daily 5 days before and 5 days after), day 3 post CPH
  Total leukocyte number: 1.06 ± 0.44 thousand in mm^3
[2]; CPH 200 mg/kg (Dicarbamine group: 0.5 mg/kg 5 days prior and 5 days after), day 3
  Cellularity of bone marrow (number of cells): 8.2 ± 1.65 millions
[2]; day 5 after CPH
  Cellularity of bone marrow (number of cells): 13.05 ± 2.75 millions
[2]; day 7 after CPH
  Cellularity of bone marrow (number of cells): 25.22 ± 2.75 millions
[2]; day 10 after CPH
  Cellularity of bone marrow (number of cells): 27.9 ± 2.75 millions
[2]; day 13 after CPH
  Cellularity of bone marrow (number of cells): 30.15 ± 6.6 millions
[2]; day 17 after CPH
  Cellularity of bone marrow (number of cells): 25.0 ± 3.16 millions
[2]; day 21 after CPH
  Cellularity of bone marrow (number of cells): 26.55 ± 4.53 millions
[3]; CPH 200 mg/kg (Dicarbamine group: 0.5 mg/kg 5 days prior and 5 days after)
  Myelocytes: 0%
[3]
  Monocytes: 4.649%
  Myelocytes: 0 in mm^3
